pIC50: −log10 of the molar value. The source made the active and inactive calls. No cut-off for these calls is given here.
What was measured:
MCF7 [1] = assay: cells; settings: Homo sapiens, MCF7, light or radiation study
Description: Antiproliferative activity against human MCF7 cells assessed as inhibition of cell proliferation incubated for 48 hrs with 660 nm 0.4 W/cm2 light irradiation for 3 min at 6th hr of incubation time by MTT assay

[2] = Cytotoxicity against human MCF-10A cells assessed as inhibition of cell proliferation incubated for 48 hrs in absence of light irradiation by MTT assay; type: toxicity, cell-based
[3] = Toxicity in female BALB/c mouse xenografted with human MCF7 cells assessed as change in blood urea nitrogen level at 5 mg/kg, iv measured after 14 days with 660 nm 0.4 W/cm2 light irradiation for 5 mins at 4 hrs of incubation time; type: organism-based; settings: in vivo, 336 h, time 14 day
MCF7 [4] = assay: cells; settings: Homo sapiens, MCF7, light or radiation study; remark: listed apart in the source
Description: Antiproliferative activity against human MCF7 cells assessed as inhibition of cell proliferation incubated for 48 hrs with 660 nm 0.4 W/cm2 light irradiation for 4 min at 6th hr of incubation time by MTT assay

MCF7 [5] = assay: Antitumor activity against human MCF7 cells xenografted in female BALB/c mouse model assessed as tumor growth inhibition at 5 mg/kg, iv measured after 14 days with 660 nm 0.4 W/cm2 light irradiation for 5 mins at 4 hrs of incubation time relative to control; type: functional; settings: MCF7, light or radiation study, 336 h, time 14 day, read-out: TGI
[6] = Induction of ROS generation in water assessed as decrease in ABDA absorption peak at 1 uM irradiated with 660 nm 0.2 to 1.5 W/cm2 light for 5 mins by ABDA probe based UV-vis absorption spectra analysis; type: functional
in vivo [7] = settings: Sprague-Dawley, rat, po, 15 mg/kg
Description: AUC (0 to infinity) in Sprague-Dawley rat at 15 mg/kg, po administered via gavage and measured after 0.5 to 168 hrs by LC-MS analysis

MCF7 [8] = assay: cells; settings: Homo sapiens, MCF7, light or radiation study; remark: listed apart in the source
Description: Antiproliferative activity against human MCF7 cells assessed as inhibition of cell proliferation incubated for 48 hrs with 660 nm 0.4 W/cm2 light irradiation for 2 min at 6th hr of incubation time by MTT assay

[9] = Toxicity in female BALB/c mouse xenografted with human MCF7 cells assessed as change in white blood cell level at 5 mg/kg, iv measured after 14 days; type: organism-based; settings: in vivo, 336 h, time 14 day
MCF7 [10] = assay: Photothermal effect in human MCF7 cells assessed as temperature of cell culture medium at 1 uM irradiated with 660 nm 0.4 W/cm2 light for 4 min (reference value: 26 degreeC); type: ADME, cell-based; settings: mcf7, 4 min
[11] = Drug uptake in female BALB/c mouse kidney xenografted with human MCF7 cells at 5 mg/kg, iv measured after 4 hrs by fluorescence imaging analysis; type: ADME, organism-based; settings: in vivo
[12] = Toxicity in female BALB/c mouse xenografted with human MCF7 cells assessed as effect on heart histology at 5 mg/kg, iv measured after 14 days by H and E staining based analysis; type: organism-based; settings: in vivo, 336 h, time 14 day
MCF7 [13] = assay: Photothermal effect in human MCF7 cells assessed as temperature of cell culture medium at 1 uM irradiated with 660 nm 0.4 W/cm2 light for 3 min (reference value: 26 degreeC); type: ADME, cell-based; settings: mcf7, 0.05 h
MCF7 [14] = assay: cells; settings: Homo sapiens, MCF7, 48 h
Description: Antiproliferative activity against human MCF7 cells assessed as inhibition of cell proliferation incubated for 48 hrs by MTT assay

in vivo [15] = settings: Sprague-Dawley, rat, iv, 5 mg/kg
Description: Volume of distribution at steady state in Sprague-Dawley rat at 5 mg/kg, iv measured after 0.5 to 168 hrs by LC-MS analysis

[16] = Toxicity in female BALB/c mouse xenografted with human MCF7 cells assessed as change in creatinine level at 5 mg/kg, iv measured after 14 days; type: organism-based; settings: in vivo, 336 h, time 14 day
in vivo [17] = settings: Sprague-Dawley, rat, iv, 5 mg/kg; remark: listed apart in the source
Description: Cmax in Sprague-Dawley rat at 5 mg/kg, iv measured after 0.5 to 168 hrs by LC-MS analysis

[18] = Toxicity in female BALB/c mouse xenografted with human MCF7 cells assessed as change in hematocrit level at 5 mg/kg, iv measured after 14 days; type: organism-based; settings: in vivo, 336 h, time 14 day
[19] = Toxicity in female BALB/c mouse xenografted with human MCF7 cells assessed as effect on liver histology at 5 mg/kg, iv measured after 14 days by H and E staining based analysis; type: organism-based; settings: in vivo, 336 h, time 14 day
MCF7 [20] = assay: Antitumor activity against human MCF7 cells xenografted in female BALB/c mouse model assessed as reduction in tumor weight at 5 mg/kg, iv measured after 14 days with 660 nm 0.4 W/cm2 light irradiation for 5 mins at 4 hrs of incubation time; type: functional, organism-based; settings: time 14.0 day
in vivo [21] = settings: Sprague-Dawley, rat, po, 15 mg/kg; remark: listed apart in the source
Description: Tmax in Sprague-Dawley rat at 15 mg/kg, po administered via gavage and measured after 0.5 to 168 hrs by LC-MS analysis

[22] = Toxicity in female BALB/c mouse xenografted with human MCF7 cells assessed as change in red blood cell level at 5 mg/kg, iv measured after 14 days; type: organism-based; settings: in vivo, 336 h, time 14 day
[23] = Drug uptake in female BALB/c mouse liver xenografted with human MCF7 cells at 5 mg/kg, iv measured after 4 hrs by fluorescence imaging analysis; type: ADME, organism-based; settings: in vivo
MCF7 [24] = assay: Induction of ROS generation in human MCF7 cells assessed as cell percentage with elevated ROS at 1 uM incubated for 6 hrs by DCFH-DA probe based flow cytometric analysis (reference value: 0.2 %); type: functional
Mus musculus = assay: In vivo induction of ERalpha degradation in female BALB/c mouse xenografted with human MCF7 cells assessed as decrease in ERalpha level in tumor at 5 mg/kg, iv measured after 14 days with 660 nm 0.4 W/cm2 light irradiation for 5 mins at 4 hrs of incubation time by DAPI staining based immunofluorescence analysis; type: functional, organism-based; settings: time 14.0 day
MCF7 [25] = assay: Antiproliferative activity against human MCF7 cells assessed as inhibition of cell proliferation incubated for 48 hrs with 660 nm 0.2 to 1.5 W/cm2 light irradiation for 1 min at 6th hr of incubation time by MTT assay; type: functional, cell-based
[26] = Photothermal effect of compound in water assessed as increase in temperature of solution at 1 uM incubated for 5 mins in presence of presence of 660 nm 0.2 to 1.5 W/cm2 light; type: functional
MCF7 [27] = assay: Photothermal effect in human MCF7 cells assessed as temperature of cell culture medium at 1 uM irradiated with 660 nm 0.4 W/cm2 light for 2 min (reference value: 26 degreeC); type: ADME, cell-based; settings: mcf7, 2 min
[28] = Toxicity in female BALB/c mouse xenografted with human MCF7 cells assessed as change in creatinine level at 5 mg/kg, iv measured after 14 days with 660 nm 0.4 W/cm2 light irradiation for 5 mins at 4 hrs of incubation time; type: organism-based; settings: in vivo, 336 h, time 14 day
[29] = Toxicity in female BALB/c mouse xenografted with human MCF7 cells assessed as effect on spleen histology at 5 mg/kg, iv measured after 14 days by H and E staining based analysis; type: organism-based; settings: in vivo, 336 h, time 14 day
MCF7 [30] = assay: Induction of ROS generation in human MCF7 cells assessed as cell percentage with elevated ROS at 1 uM incubated for 6 hrs followed by irradiation with 660 nm 0.4 W/cm2 light for 3 min by DCFH-DA probe based flow cytometric analysis (reference value: 0.2 %); type: functional; settings: time 363 min, 6.05 h
[31] = Drug uptake in human MCF7 cell nucleus assessed as increase in red fluorescence at 1 uM incubated for 6 hrs by fluorescence imaging analysis; type: ADME, subcellular; settings: mcf7, 6 h
MCF7 [32] = assay: cells; settings: Homo sapiens, MCF7, light or radiation study; remark: listed apart in the source
Description: Antiproliferative activity against human MCF7 cells assessed as inhibition of cell proliferation incubated for 48 hrs with 660 nm 0.4 W/cm2 light irradiation for 5 min at 6th hr of incubation time by MTT assay

[33] = Induction of ROS generation in water assessed as decrease in ABDA absorption peak at 5 uM irradiated with 660 nm 0.4 W/cm2 light up to 5 mins by ABDA probe based UV-vis absorption spectra analysis; type: functional
[34] = Toxicity in female BALB/c mouse xenografted with human MCF7 cells assessed as change in AST level at 5 mg/kg, iv measured after 14 days with 660 nm 0.4 W/cm2 light irradiation for 5 mins at 4 hrs of incubation time; type: organism-based; settings: in vivo, 336 h, time 14 day
[35] = Toxicity in female BALB/c mouse xenografted with human MCF7 cells assessed as change in AST level at 5 mg/kg, iv measured after 14 days; type: organism-based; settings: in vivo, 336 h, time 14 day

SMILES: CCN(CC)c1ccc2nc3c4ccccc4/c(=N\CCCCCCC(=O)NCCOc4ccc(C(=O)c5c(-c6ccc(O)cc6)sc6cc(O)ccc56)cc4)cc-3sc2c1
- pIC50 (MCF7 [1]): 6.70
- IC50 at 48 h [2]: > 100000 nM
- Activity [3]: Non-toxic
- pIC50 (MCF7 [4]): 6.80
- inhibition in vivo at 5 mg/kg (MCF7 [5]): 118%
- Activity [6]: Active
- AUC(0-inf) (in vivo [7]): 357 ng·h/mL
- pIC50 (MCF7 [8]): 6.54
- Activity [9]: Non-toxic
- T (MCF7 [10]): 30.9 °C
- Drug uptake [11]: Active
- Activity [12]: Non-toxic
- T (MCF7 [13]): 29 °C
- pIC50 (MCF7 [14]): 4.60
- Vd (in vivo [15]): 108 L/kg
- Activity [16]: Non-toxic
- Cmax (in vivo [17]): 30.2 ng/mL
- Activity [18]: Non-toxic
- Activity [19]: Non-toxic
- Activity (MCF7 [20]): Active; Significant Performance Than Faslodex Observed
- Tmax (in vivo [21]): 6 h
- Activity [22]: Non-toxic
- Drug uptake [23]: Active
- Activity (MCF7 [24]): 0.7%
- Activity (Mus musculus): Active; Superior To That Of Faslodex
- Activity (MCF7 [25]): Active
- Activity [26]: Active
- T (MCF7 [27]): 28.4 °C
- Activity [28]: Non-toxic
- Activity [29]: Non-toxic
- Activity (MCF7 [30]): 15%
- Drug uptake [31]: Active
- pIC50 (MCF7 [32]): 6.89
- Activity [33]: Active
- Activity [34]: Non-toxic
- Activity [35]: Non-toxic
